Our source for the EC50 and IC50 values is patent US6878722B2, “Substituted cycloalkyl P1′ hepatitis C virus inhibitors” (Bristol-Myers Squibb Company, priority 2002, dated 2005).

Usually EC50 stands for the concentration giving half of the maximal effect. For orientation: IC50 means the midpoint of a concentration-inhibition curve.

Assay [1] relates to HCV replicon in Huh7 cells. The assay can be described thus: HCV replicon cell-based assay (FRET). As to conditions: Hepatitis C virus, Huh-7; HCV replicon; read-out: EC50 range. An excerpt:
An HCV replicon whole cell system was established as described by Lohmann V, Korner F, Koch J, Herian U, Theilmann L, Bartenschlager R., Science 285(5424):110-3 (1999). This system enabled us to evaluate the effects of our HCV Protease compounds on HCV RNA replication. Briefly, using the HCV strain 1B sequence described in the Lohmann paper (Assession number: AJ238799), an HCV cDNA was generated encoding the 5′ internal ribosome entry site (IRES), the neomycin resistance gene, the EMCV (encephalomyocarditis viurs)-IRES and the HCV nonstructural proteins, NS3-NS5B, and 3′ non-translated region (NTR). In vitro transcripts of the cDNA were transfected into the human hepatoma cell line, Huh7. […] Resulting cell lines were characterized for positive and negative strand RNA production and protein production over time.
Huh7 cells, constitutively expressing the HCV replicon, were grown in Dulbecco's Modified Eagle Media (DMEM) containing 10% Fetal calf serum (FCS) and 1 mg/ml G418 (Gibco-BRL). Cells were seeded the night before (1.5×10^4 cells/well) in 96-well tissue-culture sterile plates. Compound and no compound controls were prepared in DMEM containing 4% FCS, 1:100 Penicillin/Streptomysin, 1:100 L-glutamine and 5% DMSO in the dilution plate (0.5% DMSO final concentration in the assay). Compound/DMSO mixes were added to the cells and incubated for 4 days at 37° C. After 4 days, plates were rinsed thoroughly with Phosphate-Buffered Saline (PBS) (3 times 150 μl). The cells were lysed with 25 μl of a lysis assay reagent containing the FRET peptide (RET S1, as described for the in vitro enzyme assay). The lysis assay reagent was made from 5× cell Luciferase cell culture lysis reagent(Promega #E153A) diluted to 1× with distilled water, NaCl added to 150 mM final, the FRET peptide diluted to 10 μM final from a 2 mM stock in 100% DMSO. The plate was then placed into the Cytofluor 4000 instrument which had been set to 340 nm excitation/490 emission, automatic mode for 21 cycles and the plate read in a kinetic mode. EC50 determinations were carried out as described for the IC50 determinations.

The target of assay [2] is T1, HCV NS3/4A protease complex (BMS strain, genotype 1a) (Hepatitis C virus genotype 1a, UniProt P27958, C1454S).
T1 construct: DNA encoding the recombinant HCV NS3/4A protease complex (amino acids 1027 to 1711) for these strains; inferred from the pET21b vector and Ni-NTA purification; made in house; host or cells: Escherichia coli BL21 (DE3), pET21b
T1 sequence (P27958 1658-1714, looked up, stated change not applied): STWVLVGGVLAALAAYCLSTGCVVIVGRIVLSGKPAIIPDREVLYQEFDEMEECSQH
T1 sequence (P27958 1027-1657, looked up, stated change not applied): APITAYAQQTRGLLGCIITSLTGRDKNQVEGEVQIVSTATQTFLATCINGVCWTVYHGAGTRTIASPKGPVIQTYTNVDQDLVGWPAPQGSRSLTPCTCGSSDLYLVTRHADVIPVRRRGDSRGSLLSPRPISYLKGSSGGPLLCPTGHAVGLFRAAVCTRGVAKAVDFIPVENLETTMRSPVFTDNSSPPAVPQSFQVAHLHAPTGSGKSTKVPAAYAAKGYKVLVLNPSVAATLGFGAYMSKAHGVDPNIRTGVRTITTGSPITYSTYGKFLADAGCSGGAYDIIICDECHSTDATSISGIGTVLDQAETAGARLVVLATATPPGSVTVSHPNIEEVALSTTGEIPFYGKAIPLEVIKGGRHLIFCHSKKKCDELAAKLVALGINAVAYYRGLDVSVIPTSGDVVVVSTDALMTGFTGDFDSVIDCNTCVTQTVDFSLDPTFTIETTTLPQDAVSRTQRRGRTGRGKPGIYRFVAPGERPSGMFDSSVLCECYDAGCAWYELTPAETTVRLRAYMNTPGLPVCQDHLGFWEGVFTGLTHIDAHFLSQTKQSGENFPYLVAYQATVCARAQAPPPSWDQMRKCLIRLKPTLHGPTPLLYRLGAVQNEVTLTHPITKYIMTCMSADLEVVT
In words: Recombinant HCV NS3/4A protease complex FRET peptide assay, BMS strain. It counts as biochemical. As to conditions: IC50 range, NS3/4A BMS Strain. The source says: The purpose of this in vitro assay was to measure the inhibition of HCV NS3 protease complexes, derived from the BMS, H77C or J416S strains, as described below, by compounds of the present invention.
Serum from an HCV-infected patient was obtained from Dr. T. Wright, San Francisco Hospital. An engineered full-length cDNA (compliment deoxyribonucleic acid) template of the HCV genome (BMS strain) was constructed from DNA fragments obtained by reverse transcription-PCR (RT-PCR) of serum RNA (ribonucleic acid) and using primers selected on the basis of homology between other genotype 1a strains. […] The infectious clones, H77C (1a genotype) and J4L6S (1b genotype) were obtained from R. Purcell (NIH) and the sequences are published in Genbank (AAB67036, see Yanagi,M., Purcell,R. H., Emerson,S. U. and Bukh,J. Proc. Natl. Acad. Sci. U.S.A. 94(16),8738-8743 (1997); AF054247, see Yanagi,M., St Claire,M., Shapiro,M., Emerson,S. U., Purcell,R. H. and Bukh,J, Virology 244 (1), 161-172. (1998)).
The BMS, H77C and J4L6S strains were used for production of recombinant NS3/4A protease complexes. DNA encoding the recombinant HCV NS3/4A protease complex (amino acids 1027 to 1711) for these strains were manipulated as described by P. Gallinari et al. (see Gallinari P, Paolini C, Brennan D, Nardi C, Steinkuhler C, De Francesco R. Biochemistry. 38(17):5620-32, (1999)). Briefly, a three-lysine solubilizing tail was added at the 3′-end of the NS4A coding region. The cysteine in the P1 position of the NS4A-NS4B cleavage site (amino acid 1711) was changed to a glycine to avoid the proteolytic cleavage of the lysine tag. Furthermore, a cysteine to serine mutation was introduced by PCR at amino acid position 1454 to prevent the autolytic cleavage in the NS3 helicase domain. The variant DNA fragment was cloned in the pET21b bacterial expression vector (Novagen) and the NS3/4A complex was expressed in Escherichia. coli strain BL21 (DE3) (Invitrogen) following the protocol described by P. Gallinari et al. (see Gallinari P, Brennan D, Nardi C, Brunetti M, Tomei L, Steinkuhler C, De Francesco R., J. Virol. 72(8):6758-69 (1998)) with modifications. Briefly, NS3/4A expression was induced with 0.5 mM Isopropyl β-D-1-thiogalactopyranoside (IPTG) for 22 hr at 20° C. […] The cells were resuspended in lysis buffer (10 mL/g) consisting of 25 mM N-(2-Hydroxyethyl)Piperazine-N′-(2-Ethane Sulfonic acid) (HEPES), pH 7.5, 20% glycerol, 500 mM Sodium Chloride (NaCl), 0.5% Triton-X100, 1 ug/ml lysozyme, 5 mM Magnesium Chloride (MgCl2), 1 ug/ml DnaseI, 5 mM β-Mercaptoethanol (βME), Protease inhibitor—Ethylenediamine Tetraacetic acid (EDTA) free (Roche), homogenized and incubated for 20 mins at 4° C. The homogenate was sonicated and clarified by ultra-centrifugation at 235000 g for 1 hr at 4° C. Imidazole was added to the supernatant to a final concentration of 15 mM and the pH adjusted to 8.0. The crude protein extract was loaded on a Nickel-Nitrilotriacetic acid (Ni-NTA) column pre-equilibrated with buffer B (25 mM HEPES, pH 8.0, 20% glycerol, 500 mM NaCl, 0.5% Triton-X100, 15 mM imidazole, 5 mM βME). The sample was loaded at a flow rate of 1 mL/min. The column was washed with 15 column volumes of buffer C (same as buffer B except with 0.2% Triton-X100). The protein was eluted with 5 column volumes of buffer D (same as buffer C except with 200 mM Imidazole).
NS3/4A protease complex-containing fractions were pooled and loaded on a desalting column Superdex-S200 pre-equilibrated with buffer D (25 mM HEPES, pH7.5, 20% glycerol, 300 mM NaCl, 0.2% Triton-X100, 10 mM βME).

Take `C=CC1C[C@]1(NC(=O)[C@@H]1C[C@@H](Oc2cc(-c3ccccc3)nc3cc(OC)ccc23)CN1C(=O)[C@@H](NC(=O)OC(C)(C)C)C(C)(C)C)C(=O)NS(=O)(=O)C1(C(=O)c2ccccc2)CC1` (stereo in doubt) [Compound 4, {1-[2-[1-(1-Benzoylcyclopropanesulfonyl-aminocarbonyl)-2-vinyl-cyclopropylcarbamoyl]-4-(7-methoxy-2-phenylquinolin-4-yloxy)-pyrrolidine-1-carbonyl]-2,2-dimethylpropyl}-carbamic acid tert-butyl ester]: the concentration for a half-maximal effect (EC50) in assay [1] was in the range of 50 to 500 nM. For the same molecule, the IC50 in assay [2] lay within 50 to 500 nM.

For the molecule `C=CC1C[C@]1(NC(=O)[C@@H]1C[C@@H](Oc2cc(-c3ccccc3)nc3cc(OC)ccc23)CN1C(=O)[C@@H](NC(=O)CC1CC1)C(C)(C)C)C(=O)NS(=O)(=O)C1(C)CC1` (stereo in doubt) [Compound 13, 1-[2-(2-Cyclopropyl-acetylamino)-3,3-dimethyl-butyryl]-4-(7-methoxy-2-phenylquinolin-4-yloxy)-pyrrolidine-2-carboxylic acid [1-(1-methylcyclopropanesulfonylaminocarbonyl)-2-vinylcyclopropyl]amide], the EC50 in assay [1] is under 50 nM. In assay [2], the IC50 was under 50 nM.

Regarding `C=C[C@@H]1C[C@]1(NC(=O)[C@@H]1C[C@@H](Oc2ccnc3cc(Cl)ccc23)CN1C(=O)[C@@H](NC(=O)OC1CCCC1)C(C)(C)C)C(=O)NS(=O)(=O)C1(C)CC1` [Compound 63, (1-{4-(7-Chloro-quinolin-4-yloxy)-2-[1-(1-methyl-cyclopropanesulfonylaminocarbonyl)-2-vinyl-cyclopropylcarbamoyl]-pyrrolidine-1-carbonyl}-2,2-dimethyl-propyl)-carbamic acid cyclopentyl ester], in assay [1], the 50% effective concentration (EC50) was under 50 nM. Besides, the half-inhibitory concentration (IC50) in assay [2] is under 50 nM.

As for `C=CC1C[C@]1(NC(=O)[C@@H]1C[C@@H](Oc2cc(-c3ccccc3)nc3cc(OC)ccc23)CN1C(=O)[C@@H](NC(=O)OC(C)(C)C)C(C)(C)C)C(=O)NS(=O)(=O)C1(COC)CC1` (some centres unmarked) [Compound 7, {1-[2-[1-(1-Methoxymethylcyclopropanesulfonylaminocarbonyl)-2-vinylcyclopropylcarbamoyl]-4-(7-methoxy-2-phenyl-quinolin-4--yloxy)pyrrolidine-1-carbonyl]-2,2-dimeth-ylpropyl}-carbamic acid tert-butyl ester], the concentration giving a half-maximal response (EC50) in assay [1] is under 50 nM. In assay [2], the IC50 is under 50 nM.

As to `C=C[C@@H]1C[C@]1(NC(=O)[C@@H]1C[C@@H](Oc2cc(-c3ccccc3)nc3cc(OC)ccc23)CN1C(=O)[C@@H](NC(=O)CC(C)(C)C)C(C)(C)C)C(=O)NS(=O)(=O)C1(Cc2ccccc2)CC1` [Compound 110], the EC50 in assay [1] fell in the range of 50 to 500 nM. In assay [2], the concentration for half-maximal inhibition (IC50) was in the range of 50 to 500 nM.

`C=C[C@@H]1C[C@]1(NC(=O)[C@@H]1C[C@@H](Oc2cc(-c3ccccc3)nc3cc(OC)ccc23)CN1C(=O)[C@@H](NC(=O)NCC)C(C)(C)C)C(=O)NS(=O)(=O)C1(Cc2ccccc2)CC1` [Compound 61, 1-[2-(3-Ethyl-ureido)-3,3-dimethyl-butyryl]-4-(7-methoxy-2-phenyl-quinolin-4-yloxy)-pyrrolidine-2-carboxylic acid [1-(1-benzyl-cyclopropanesulfonylaminocarbonyl)-2-vinyl-cyclopropyl]-amide]: the EC50 in assay [1] was in the range of 50 to 500 nM. For the same molecule, the IC50 in assay [2] is under 50 nM.

Regarding `C=C[C@@H]1C[C@]1(NC(=O)[C@@H]1C[C@@H](Oc2cc(-c3ccccc3)nc3cc(OC)ccc23)CN1C(=O)[C@@H](NC(=O)OC(C)(C)C)C(C)(C)C)C(=O)NS(=O)(=O)C1(Cc2cc(C)on2)CC1` [Compound 51, [1-(4-(7-Methoxy-2-phenyl-quinolin-4-yloxy)-2-{1-[1-(5-methyl-isoxazol-3-ylmethyl)-cyclopropanesulfonylaminocarbonyl]-2-vinyl-cyclopropylcarbamoyl}-pyrrolidine-1-carbonyl)-2,2-dimethyl-propyl]-carbamic acid tert-butyl ester], in assay [1], the EC50 is under 50 nM. The IC50 in assay [2] is under 50 nM.

Consider `C=C[C@@H]1C[C@]1(NC(=O)[C@@H]1C[C@@H](Oc2cc(C3CC3)nc3cc(OC)ccc23)CN1C(=O)[C@@H](NC(=O)OC(C)(C)C)C(C)(C)C)C(=O)NS(=O)(=O)C1(CC#CCC)CC1` [Compound 69, (1-{4-(2-Cyclopropyl-7-methoxy-quinolin-4-yloxy)-2-[1-(1-pent-2-ynyl-cyclopropanesulfonylaminocarbonyl)-2-vinyl-cyclopropylcarbamoyl]-pyrrolidine-1-carbonyl}-2,2-dimethyl-propyl)-carbamic acid tert-butyl ester], for which, in assay [1], the 50% effective concentration (EC50) is under 50 nM. The IC50 in assay [2] is under 50 nM.

On to `C=C[C@@H]1C[C@]1(NC(=O)C1CC(Oc2cc(-c3ccccc3)nc3cc(OC)ccc23)CN1C(=O)[C@@H](NC(=O)N(C)C(C)(C)C)C(C)(C)C)C(=O)NS(=O)(=O)C1(CC2CC2)CC1` (some centres unmarked) [Compound 120], for which the EC50 in assay [1] was 50 to 500 nM. Besides, in assay [2], the half-inhibitory concentration (IC50) is under 50 nM.

With `C=C[C@@H]1C[C@]1(NC(=O)[C@@H]1C[C@@H](Oc2cc(-c3ccccc3)nc3cc(OC)ccc23)CN1C(=O)[C@@H](NC(=O)OC(C)(C)C)C(C)C)C(=O)NS(=O)(=O)C1(CCOC)CC1` [Compound 53, {1-[2-{1-[1-(2-Methoxy-ethyl)-cyclopropanesulfonylaminocarbonyl]-2-vinyl-cyclopropylcarbamoyl}-4-(7-methoxy-2-phenyl-quinolin-4-yloxy)-pyrrolidine-1-carbonyl]-2-methyl-propyl}-carbamic acid tert-butyl ester], the half-maximal effective concentration (EC50) in assay [1] is under 50 nM. Moreover, in assay [2], the 50% inhibitory concentration (IC50) is under 50 nM.
